Experiment: Dissolution of salicylic acid in film-forming gel components
Assay type: physicochemical

O=C(O)c1ccccc1O [salicylic acid]
Solubility of salicylic acid in the silicate tackifying resin and/or the volatile solvent: does not appear to be readily soluble
Dissolution of salicylic acid in the formulation of U.S. Pat. No. 10,603,405 (SPOx added at the end of the manufacture): did not appear dissolve and remained a solid particulate

From patent US20240307416A1, “FILM-FORMING COMPOSITIONS COMPRISING SALICYLIC ACID AND METHODS OF USE” (3M INNOVATIVE PROPERTIES COMPANY, priority 2021, published 2024)
